Results on ten molecules are retold here after patent publication US10519152B2, “Compounds and their use in treating cancer” (AstraZeneca AB, priority 2017, dated 2019).

Structures are written as SMILES.

This assay has as its target T1, Estrogen Receptor (ERα) in MCF-7 human ductal carcinoma breast cell line (Homo sapiens, UniProt P03372).
T1 construct: endogenous in cells; host or cells: MCF-7
T1 sequence (P03372 1-595): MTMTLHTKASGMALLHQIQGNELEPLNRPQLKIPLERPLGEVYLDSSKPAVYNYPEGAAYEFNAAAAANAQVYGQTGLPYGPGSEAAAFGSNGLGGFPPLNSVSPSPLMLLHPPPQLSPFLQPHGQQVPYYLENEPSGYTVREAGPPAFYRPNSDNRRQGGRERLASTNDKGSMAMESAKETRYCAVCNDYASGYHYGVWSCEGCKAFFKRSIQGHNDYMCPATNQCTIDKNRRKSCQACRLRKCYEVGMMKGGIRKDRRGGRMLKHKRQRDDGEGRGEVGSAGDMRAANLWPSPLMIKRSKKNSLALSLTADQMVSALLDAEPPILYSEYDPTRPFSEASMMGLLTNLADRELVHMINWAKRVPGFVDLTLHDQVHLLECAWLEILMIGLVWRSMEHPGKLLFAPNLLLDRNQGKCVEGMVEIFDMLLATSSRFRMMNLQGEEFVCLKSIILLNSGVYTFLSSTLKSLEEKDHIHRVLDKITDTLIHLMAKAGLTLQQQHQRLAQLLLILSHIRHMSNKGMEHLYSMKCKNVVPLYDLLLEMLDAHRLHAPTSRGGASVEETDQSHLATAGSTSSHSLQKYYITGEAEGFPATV
In words: MCF-7 ER degradation assay (cell based immuno-fluorescence). The note with it: MCF-7 cells; for ER degradation ≥ 90% at 0.3 μM: ER degradation by fulvestrant at 0.3 μM is defined as 100%; for DC50: 18-22 hours incubation, 50% reduction of ERα expression, single experiment or average of two or more, read-out: MCF-7 ER degradation IC50. The procedure, abridged:
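MCF-7 human ductal carcinoma breast cells were seeded at 3.75×10^4 cells per mL (40 μL per well) in 384 well plates with phenol red free DMEM containing 2 mM L-Glutamine and 5% (v/v) Charcoal/Dextran treated foetal calf serum. After overnight culture, compounds were acoustically dispensed, incubated 18-22 hours, then cells were formaldehyde-fixed and immunostained for ERα.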

For `Cc1ncsc1-c1ccc([C@H](C)NC(=O)[C@@H]2C[C@@H](O)CN2C(=O)[C@@H](NC(=O)COCCCOCCCCCOc2cc(F)c([C@@H]3c4[nH]c5ccccc5c4C[C@@H](C)N3CC(C)(C)F)c(F)c2)C(C)(C)C)cc1` [Example 137, (2S,4R)-1-((S)-2-(2-(3-((5-(3,5-Difluoro-4-((R,3R)-2-(2-fluoro-2-methylpropyl)-3-methyl-2,3,4,9-tetrahydro-1H-pyrido[3,4-b]indol-1-yl)phenoxy)pentyl)oxy)propoxy)acetamido)-3,3-dimethylbutanoyl)-4-hydroxy-N—((S)-1-(4-(4-methylthiazol-5-yl)phenyl)ethyl)pyrrolidine-2-carboxamide], the “ER degradation ≥ 90% at 0.3 μM” value is reported as “••” and the DC50 turned out to be 0.8 nM.

As to `Cc1ncsc1-c1ccc([C@H](C)NC(=O)[C@@H]2C[C@@H](O)CN2C(=O)[C@@H](NC(=O)COCCCOCCCOc2cc(F)c([C@@H]3c4[nH]c5ccccc5c4C[C@@H](C)N3CC(C)(C)F)c(F)c2)C(C)(C)C)cc1` [Example 152, (2S,4R)-1-((S)-2-(2-(3-(3-(3,5-Difluoro-4-((1R,3R)-2-(2-fluoro-2-methylpropyl)-3-methyl-2,3,4,9-tetrahydro-1H-pyrido[3,4-b]indol-1-yl)phenoxy)propoxy)propoxy)acetamido)-3,3-dimethylbutanoyl)-4-hydroxy-N—((S)-1-(4-(4-methylthiazol-5-yl)phenyl)ethyl)pyrrolidine-2-carboxamide], the “ER degradation ≥ 90% at 0.3 μM” value is given as “••” and the DC50 was 0.8 nM.

For `Cc1ncsc1-c1ccc(CNC(=O)[C@@H]2C[C@@H](O)CN2C(=O)[C@@H](NC(=O)CNCCCCCCCCOc2cc(F)c([C@@H]3c4[nH]c5ccccc5c4C[C@@H](C)N3CC(C)(C)F)c(F)c2)C(C)(C)C)cc1` [Example 147, (2S,4R)-1-((S)-2-(2-((8-(3,5-Difluoro-4-((1R,3R)-2-(2-fluoro-2-methylpropyl)-3-methyl-2,3,4,9-tetrahydro-1H-pyrido[3,4-b]indol-1-yl)phenoxy)octyl)amino)acetamido)-3,3-dimethylbutanoyl)-4-hydroxy-N-(4-(4-methylthiazol-5-yl)benzyl)pyrrolidine-2-carboxamide], the “ER degradation ≥ 90% at 0.3 μM” value is “•” and the DC50 is 5.8 nM.

As to `Cc1ncsc1-c1ccc(CNC(=O)[C@@H]2C[C@@H](O)CN2C(=O)[C@@H](NC(=O)CCCCOCCCCCOc2cc(F)c([C@@H]3c4[nH]c5ccccc5c4C[C@@H](C)N3CC(C)(C)F)c(F)c2)C(C)(C)C)cc1` [Example 113, (2S,4R)-1-((S)-2-(5-((5-(3,5-Difluoro-4-((1R,3R)-2-(2-fluoro-2-methylpropyl)-3-methyl-2,3,4,9-tetrahydro-1H-pyrido[3,4-b]indol-1-yl)phenoxy)pentyl)oxy)pentanamido)-3,3-dimethylbutanoyl)-4-hydroxy-N-(4-(4-methylthiazol-5-yl)benzyl)pyrrolidine-2-carboxamide], the “ER degradation ≥ 90% at 0.3 μM” value is “••” and the DC50 amounted to 0.9 nM.

As for `Cc1ncsc1-c1ccc(CNC(=O)[C@@H]2C[C@@H](O)CN2C(=O)[C@@H](NC(=O)COCCCCCCOc2ccc([C@@H]3c4[nH]c5ccccc5c4C[C@@H](C)N3CC(F)F)nc2)C(C)(C)C)cc1` [Example 8, (2S,4R)-1-((S)-2-(2-((6-((6-((1S,3R)-2-(2,2-Difluoroethyl)-3-methyl-2,3,4,9-tetrahydro-1H-pyrido[3,4-b]indol-1-yl)pyridin-3-yl)oxy)hexyl)oxy)acetamido)-3,3-dimethylbutanoyl)-4-hydroxy-N-(4-(4-methylthiazol-5-yl)benzyl)pyrrolidine-2-carboxamide], the “ER degradation ≥ 90% at 0.3 μM” value is given as “••” and the DC50 is 9.4 nM.

As for `Cc1ncsc1-c1ccc(CNC(=O)[C@@H]2C[C@@H](O)CN2C(=O)[C@@H](NC(=O)COCCOCCC(F)(F)CCOc2cc(F)c([C@@H]3c4[nH]c5ccccc5c4C[C@@H](C)N3CC(C)(C)F)c(F)c2)C(C)(C)C)cc1` [Example 127, (2S,4R)-1-((S)-2-(2-(2-((5-(3,5-Difluoro-4-((R,3R)-2-(2-fluoro-2-methylpropyl)-3-methyl-2,3,4,9-tetrahydro-1H-pyrido[3,4-b]indol-1-yl)phenoxy)-3,3-difluoropentyl)oxy)ethoxy)acetamido)-3,3-dimethylbutanoyl)-4-hydroxy-N-(4-(4-methylthiazol-5-yl)benzyl)pyrrolidine-2-carboxamide], the “ER degradation ≥ 90% at 0.3 μM” value is listed as “••” and the DC50 is 0.8 nM.

Regarding `Cc1ncsc1-c1ccc(CNC(=O)[C@@H]2C[C@@H](O)CN2C(=O)[C@@H](NC(=O)COCCCCC(=O)N(C)CCOc2cc(F)c([C@@H]3c4[nH]c5ccccc5c4C[C@@H](C)N3CC(C)(C)F)c(F)c2)C(C)(C)C)cc1` [Example 143, (2S,4R)-1-((S)-2-(2-((5-((2-(3,5-Difluoro-4-((1R,3R)-2-(2-fluoro-2-methylpropyl)-3-methyl-2,3,4,9-tetrahydro-1H-pyrido[3,4-b]indol-1-yl)phenoxy)ethyl)(methyl)amino)-5-oxopentyl)oxy)acetamido)-3,3-dimethylbutanoyl)-4-hydroxy-N-(4-(4-methylthiazol-5-yl)benzyl)pyrrolidine-2-carboxamide], the “ER degradation ≥ 90% at 0.3 μM” value is listed as “••” and the DC50 amounted to 0.2 nM.

For `Cc1ncsc1-c1ccc(CNC(=O)[C@@H]2C[C@@H](O)CN2C(=O)[C@@H](NC(=O)COCCCCCN(CCOc2cc(F)c([C@@H]3c4[nH]c5ccccc5c4C[C@@H](C)N3CC(C)(C)F)c(F)c2)C(=O)OCc2ccccc2)C(C)(C)C)cc1` [Example 45, Benzyl (2-(3,5-difluoro-4-((1R,3R)-2-(2-fluoro-2-methylpropyl)-3-methyl-2,3,4,9-tetrahydro-1H-pyrido[3,4-b]indol-1-yl)phenoxy)ethyl)(5-(2-(((S)-1-((2S,4R)-4-hydroxy-2-((4-(4-methylthiazol-5-yl)benzyl)carbamoyl)pyrrolidin-1-yl)-3,3-dimethyl-1-oxobutan-2-yl)amino)-2-oxoethoxy)pentyl)carbamate], the “ER degradation ≥ 90% at 0.3 μM” value is listed as “••” and the DC50 was found to be 12 nM.

Take `Cc1ncsc1-c1ccc(CNC(=O)[C@@H]2C[C@@H](O)CN2C(=O)[C@@H](NC(=O)CCCc2ccc(COc3cc(F)c([C@@H]4c5[nH]c6ccccc6c5C[C@@H](C)N4CC(C)(C)F)c(F)c3)nc2)C(C)(C)C)cc1` [Example 141, (2S,4R)-1-((S)-2-(4-(6-((3,5-Difluoro-4-((1R,3R)-2-(2-fluoro-2-methylpropyl)-3-methyl-2,3,4,9-tetrahydro-1H-pyrido[3,4-b]indol-1-yl)phenoxy)methyl)pyridin-3-yl)butanamido)-3,3-dimethylbutanoyl)-4-hydroxy-N-(4-(4-methylthiazol-5-yl)benzyl)pyrrolidine-2-carboxamide]: the “ER degradation ≥ 90% at 0.3 μM” value was “•” and the DC50 worked out at 0.9 nM.

For `Cc1ncsc1-c1ccc([C@H](C)NC(=O)[C@@H]2C[C@@H](O)CN2C(=O)[C@@H](NC(=O)CCOCCCCCCCOc2cc(F)c([C@@H]3c4[nH]c5ccccc5c4C[C@@H](C)N3CC(C)(C)F)c(F)c2)C(C)(C)C)cc1` [Example 114, (2S,4R)-1-((S)-2-(3-((7-(3,5-difluoro-4-((1R,3R)-2-(2-fluoro-2-methylpropyl)-3-methyl-2,3,4,9-tetrahydro-1H-pyrido[3,4-b]indol-1-yl)phenoxy)heptyl)oxy)propanamido)-3,3-dimethylbutanoyl)-4-hydroxy-N—((S)-1-(4-(4-methylthiazol-5-yl)phenyl)ethyl)pyrrolidine-2-carboxamide], the “ER degradation ≥ 90% at 0.3 μM” value is on record as “••” and the DC50 was determined as 3.6 nM.
